# Measured values published in ChEMBL document CHEMBL1201862, “PubChem BioAssay data set” (2004).
#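 Cells were grown in 96-well plates and exposed to each compound for 48 hours at five concentrations; endpoints were interpolated linearly between bracketing concentrations, or set to the highest concentration if not reached. The concentration for 50% growth inhibition is given as GI50.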 The source made the active and inactive calls. Cut-off read from the data, not from the text of the source: active = GI50 up to about 1.1 µM and inactive = higher.
# What was measured:
# Assay in all cases: growth of human tumour cells (NCI), 48 h
# [1] = test system: COLO 205
# [2] = test system: NCI-H23
# [3] = test system: M14
# [4] = test system: UACC-62
# [5] = test system: MDA-N
# [6] = test system: SF-295
# [7] = test system: SR
# [8] = test system: OVCAR-8
# [9] = test system: SK-OV-3
# [10] = test system: SNB-19
# [11] = test system: OVCAR-5
# [12] = test system: K562
# [13] = test system: SK-MEL-2
# [14] = test system: SN12C
# [15] = test system: MCF7
# [16] = test system: NCI-H460
# [17] = test system: HCT-15
# [18] = test system: HCC 2998
# [19] = test system: MDA-MB-231
# [20] = test system: U-251
# [21] = test system: BT-549
# [22] = test system: HOP-92
# [23] = test system: DU-145
# [24] = test system: SK-MEL-28
# [25] = test system: CCRF-CEM
# [26] = test system: MDA-MB-435
# [27] = test system: Malme-3M
# [28] = test system: SF-268
# [29] = test system: NCI-H226
# [30] = test system: Hs-578T
# [31] = test system: 786-0
# [32] = test system: CAKI-1
# [33] = test system: UO-31
# [34] = test system: PC-3
# [35] = test system: NCI/ADR-RES
# [36] = test system: EKVX
# [37] = test system: TK-10
# [38] = test system: OVCAR-4
# [39] = test system: SNB-75
# [40] = test system: T47D
# [41] = test system: HT-29
# [42] = test system: HOP-62
# [43] = test system: SF-539
# [44] = test system: NCI-H522
# [45] = test system: SK-MEL-5
# [46] = test system: KM12
# [47] = test system: OVCAR-3
# [48] = test system: UACC-257
# [49] = test system: HCT-116
# [50] = test system: SW-620
# [51] = test system: ACHN
# [52] = test system: LOX IMVI
# [53] = test system: RPMI-8226
# [54] = test system: IGROV-1
# [55] = test system: A498
# [56] = test system: MOLT-4
# [57] = test system: HL-60
# [58] = test system: RXF 393
# [59] = test system: A549
# [60] = test system: SNB-78
# [61] = test system: DLD-1
# [62] = test system: LXFL 529
# [63] = test system: M19-MEL
# [64] = test system: DMS-273
# [65] = test system: KM-20L2
smiles,measurement,setting,value
Cc1cc(SCC(=O)c2ccc(Br)cc2)cc(C)[o+]1,GI50,[1],31.9 µM (inactive)
same,GI50,[2],31.6 µM (inactive)
same,GI50,[3],26.5 µM (inactive)
same,GI50,[4],31.4 µM (inactive)
same,GI50,[5],30.6 µM (inactive)
same,GI50,[6],26.6 µM (inactive)
same,GI50,[7],22.8 µM (inactive)
same,GI50,[8],32.4 µM (inactive)
same,GI50,[9],60 µM (inactive)
same,GI50,[10],36.7 µM (inactive)
same,GI50,[11],20.6 µM (inactive)
same,GI50,[12],24.9 µM (inactive)
same,GI50,[13],30.8 µM (inactive)
same,GI50,[14],39 µM (inactive)
same,GI50,[15],19.3 µM (inactive)
same,GI50,[16],25.5 µM (inactive)
same,GI50,[17],32.1 µM
same,GI50,[18],25.2 µM (inactive)
same,GI50,[19],36.6 µM (inactive)
same,GI50,[20],30.1 µM (inactive)
same,GI50,[21],39.7 µM (inactive)
same,GI50,[22],22.7 µM (inactive)
same,GI50,[23],29.5 µM (inactive)
same,GI50,[24],13.8 µM (inactive)
same,GI50,[25],16 µM (inactive)
same,GI50,[26],21.3 µM (inactive)
same,GI50,[27],30.9 µM (inactive)
same,GI50,[28],47.6 µM (inactive)
same,GI50,[29],31.3 µM (inactive)
same,GI50,[30],47.6 µM (inactive)
same,GI50,[31],33.5 µM (inactive)
same,GI50,[32],35.9 µM (inactive)
same,GI50,[33],26.6 µM (inactive)
same,GI50,[34],29.4 µM (inactive)
same,GI50,[35],29.8 µM (inactive)
same,GI50,[36],12.4 µM (inactive)
same,GI50,[37],35.1 µM (inactive)
same,GI50,[38],24.9 µM (inactive)
same,GI50,[39],20.3 µM (inactive)
same,GI50,[40],19.8 µM (inactive)
same,GI50,[41],25.1 µM (inactive)
same,GI50,[42],36.8 µM (inactive)
same,GI50,[43],23 µM (inactive)
same,GI50,[44],21.6 µM (inactive)
same,GI50,[45],18 µM (inactive)
same,GI50,[46],24.4 µM (inactive)
same,GI50,[47],21.4 µM (inactive)
same,GI50,[48],25.1 µM (inactive)
same,GI50,[49],23.8 µM (inactive)
same,GI50,[50],34 µM (inactive)
same,GI50,[51],31.2 µM (inactive)
same,GI50,[52],32.1 µM (inactive)
same,GI50,[53],21.7 µM (inactive)
same,GI50,[54],37.4 µM (inactive)
same,GI50,[55],27.3 µM (inactive)
same,GI50,[56],17.4 µM (inactive)
same,GI50,[57],13.5 µM (inactive)
same,GI50,[58],28.6 µM (inactive)
same,GI50,[59],31.7 µM (inactive)
CC(C(=O)n1nnc2ccccc21)N(c1ccccc1)c1ccccc1 (stereo unspecified),GI50,[1],> 100 µM (inactive)
same,GI50,[2],56.8 µM (inactive)
same,GI50,[60],> 100 µM (inactive)
same,GI50,[3],> 100 µM (inactive)
same,GI50,[4],> 100 µM (inactive)
same,GI50,[6],> 100 µM (inactive)
same,GI50,[7],78.3 µM (inactive)
same,GI50,[8],> 100 µM (inactive)
same,GI50,[9],> 100 µM (inactive)
same,GI50,[10],48.3 µM (inactive)
same,GI50,[11],> 100 µM (inactive)
same,GI50,[12],> 100 µM (inactive)
same,GI50,[13],> 100 µM (inactive)
same,GI50,[14],> 100 µM (inactive)
same,GI50,[16],> 100 µM (inactive)
same,GI50,[17],> 100 µM
same,GI50,[18],> 100 µM (inactive)
same,GI50,[20],43.5 µM (inactive)
same,GI50,[61],> 100 µM (inactive)
same,GI50,[24],> 100 µM (inactive)
same,GI50,[25],83.4 µM (inactive)
same,GI50,[27],84.7 µM (inactive)
same,GI50,[28],> 100 µM (inactive)
same,GI50,[29],87.7 µM (inactive)
same,GI50,[62],> 100 µM (inactive)
same,GI50,[31],> 100 µM (inactive)
same,GI50,[32],> 100 µM (inactive)
same,GI50,[33],> 100 µM (inactive)
same,GI50,[36],68.2 µM (inactive)
same,GI50,[37],> 100 µM (inactive)
same,GI50,[39],69.5 µM (inactive)
same,GI50,[41],> 100 µM (inactive)
same,GI50,[42],> 100 µM (inactive)
same,GI50,[43],> 100 µM (inactive)
same,GI50,[44],45.5 µM (inactive)
same,GI50,[63],> 100 µM (inactive)
same,GI50,[45],42.9 µM (inactive)
same,GI50,[47],66.7 µM (inactive)
same,GI50,[48],72.4 µM (inactive)
same,GI50,[49],89.5 µM (inactive)
same,GI50,[50],> 100 µM (inactive)
same,GI50,[51],> 100 µM (inactive)
same,GI50,[52],76.6 µM (inactive)
same,GI50,[53],52.7 µM (inactive)
same,GI50,[54],> 100 µM (inactive)
same,GI50,[64],91.6 µM (inactive)
same,GI50,[56],99.5 µM (inactive)
same,GI50,[57],45.1 µM (inactive)
same,GI50,[58],> 100 µM (inactive)
same,GI50,[65],> 100 µM (inactive)
same,GI50,[59],56.9 µM (inactive)
COc1ccc2c(c1)-c1nn(CCCN(C)C)c3ccc([N+](=O)[O-])c(c13)N2 [PYRAZOLOACRIDINE],GI50,[2],0.662 µM (active)
same,GI50,[3],0.61 µM (active)
same,GI50,[7],0.173 µM (active)
same,GI50,[8],0.118 µM (active)
same,GI50,[13],0.647 µM (active)
same,GI50,[14],0.199 µM (active)
same,GI50,[15],0.333 µM (active)
same,GI50,[23],0.484 µM (active)
same,GI50,[61],0.262 µM (active)
same,GI50,[28],0.283 µM (active)
same,GI50,[30],0.603 µM (active)
same,GI50,[31],0.191 µM (active)
same,GI50,[32],0.396 µM (active)
same,GI50,[35],0.0986 µM (active)
same,GI50,[41],0.137 µM (active)
same,GI50,[45],0.536 µM (active)
same,GI50,[49],0.0986 µM (active)
same,GI50,[50],0.133 µM (active)
same,GI50,[53],0.305 µM (active)
same,GI50,[64],0.135 µM (active)
same,GI50,[56],0.0662 µM (active)
